In the supplement of paper PMC8671470:

Assays:
Settings in all cases: 72 h
[1] = system: HL-60; test: area under dose-response curve (viability, 1 nM-10 uM) (fraction (0-1)); higher = more sensitive
Procedure, shortened: (§1)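 A rescreen of the full library used HL-60 cells in RPMI 1640 with 10% FBS on 384-well plates, run in duplicate at five tenfold concentrations (1–10,000 nM). Each screen included DMSO or 100 nM of one of three metabolic inhibitors and ran 72 h at 37 °C, 5% CO2. CellTiter-Glo viability was scaled between DMSO and 10 μM proteasome-inhibitor wells. Any area under the curve comes from four-parameter log-logistic fits with drc and PharmacoGx.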

[2] = system: SHI-1; test: cell viability (% survival relative to DMSO control, bortezomib = 0%); higher = less cytotoxic
Procedure, shortened: (§2)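 Fifteen myeloid leukaemia cell lines (10 AML, 5 CML) were seeded at a density titrated to the linear growth range into 384-well plates pre-printed with compounds at 1, 10, 100, 1000 or 10000 nM in duplicate. Plates were incubated for 72 h at 37 °C with 5% CO2. Viability was then read by CellTiter-Glo luminescence. Each value is percent survival averaged over the duplicates, with vehicle set to 100% and a 10 µM positive control to 0%.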

[3] = system: KCL-22; test: as above
Procedure, shortened: as §2

[4] = system: MV4-11; test: as above
Procedure, shortened: as §2

[5] = system: Mono-Mac-6; test: as above
Procedure, shortened: as §2

[6] = system: ML-2; test: as above
Procedure, shortened: as §2

[7] = system: KG-1; test: as above
Procedure, shortened: as §2

[8] = system: LAMA-84; test: as above
Procedure, shortened: as §2

[9] = system: BV-173; test: as above
Procedure, shortened: as §2

[10] = system: HL-60; test: as above
Procedure, shortened: as §2

[11] = system: HEL; test: as above
Procedure, shortened: as §2

[12] = system: K-562; test: as above
Procedure, shortened: as §2

[13] = system: HL-60; test: cell viability (% survival relative to DMSO control); higher = less cytotoxic
Procedure, shortened: as §1

[14] = system: SHI-1
Procedure, shortened: (§3)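 Each of fifteen myeloid leukaemia cell lines was seeded in RPMI 1640 at a density titrated to its linear growth range. The cells were incubated for 72 h at 37 °C and 5% CO2 with compounds at five tenfold doses from 1 to 10,000 nM, in duplicate. After ATP luminescence was normalised to vehicle and to a positive control at 10 µM, four-parameter log-logistic curves were fitted. These curves gave the IC50.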

[15] = system: KCL-22
Procedure, shortened: as §3

[16] = system: MV4-11
Procedure, shortened: as §3

[17] = system: Mono-Mac-6
Procedure, shortened: as §3

[18] = system: KU-812
Procedure, shortened: as §3

[19] = system: ML-2
Procedure, shortened: as §3

[20] = system: KG-1
Procedure, shortened: as §3

[21] = system: MOLM-13
Procedure, shortened: as §3

[22] = system: LAMA-84
Procedure, shortened: as §3

[23] = system: BV-173
Procedure, shortened: as §3

[24] = system: HL-60
Procedure, shortened: as §3

[25] = system: NOMO-1
Procedure, shortened: as §3

[26] = system: THP-1
Procedure, shortened: as §3

[27] = system: HEL
Procedure, shortened: as §3

[28] = system: K-562
Procedure, shortened: as §3

O=[As]O[As]=O (stereo unspecified) [Arsenic trioxide]
Settings | area under dose-response curve, co-treatment: AZD3965 100 nM | area under dose-response curve, co-treatment: DMSO vehicle | area under dose-response curve, co-treatment: GSK2194069 100 nM | area under dose-response curve, co-treatment: pictilisib 100 nM | cell viability, 1 nM [%] | cell viability, 10 nM [%] | cell viability, 100 nM [%] | cell viability, 1000 nM [%] | cell viability, 10000 nM [%]
[1] | < 0.0301 | < 0.0301 | < 0.0301 | < 0.0301 | – | – | – | – | –
[2] | – | – | – | – | 105 | 97.1 | 112 | 94.7 | 57.6
[3] | – | – | – | – | 107 | 107 | 102 | 99 | 74.4
[4] | – | – | – | – | 97 | 108 | 104 | 95.1 | 20.4
[5] | – | – | – | – | 98.2 | 104 | 109 | 102 | 43.2
[6] | – | – | – | – | 109 | 96.4 | 103 | 94.9 | 76.2
[7] | – | – | – | – | 103 | 106 | 108 | 97 | 86.4
[8] | – | – | – | – | 104 | 100 | 109 | 90.2 | 53.2
[9] | – | – | – | – | 96.1 | 97.2 | 105 | 95.5 | 28.4
[10] | – | – | – | – | 108 | 105 | 109 | 96.9 | 55.6
[11] | – | – | – | – | 98.8 | 102 | 120 | 96.8 | 74.9
[12] | – | – | – | – | 91.1 | 93.8 | 105 | 102 | 49.5

cell viability [%], [13]
Settings | 0.001 µM | 0.01 µM | 0.1 µM | 1 µM | 10 µM
co-treatment: AZD3965 100 nM | 103 | 101.5 | 98.7 | 102 | 82.7
co-treatment: DMSO vehicle | 98.8 | 100 | 97.29 | 100.5 | 96.7
co-treatment: GSK2194069 100 nM | 102 | 99.1 | 98.8 | 99.11 | 87.09
co-treatment: pictilisib 100 nM | 94.24 | 101 | 93.6 | 98.5 | 63.4

Settings | IC50 (cell viability) [µM]
[14] | 9.09
[15] | > 10
[16] | 4.27
[17] | 8.74
[18] | > 10
[19] | > 10
[20] | > 10
[21] | 4.97
[22] | 7.24
[23] | 4.7
[24] | 8.69
[25] | > 10
[26] | > 10
[27] | > 10
[28] | > 10

CN(C)CCNC(=O)c1cccn2c(=O)c3cc4ccccc4cc3nc12 [Bmh-21]
Settings | area under dose-response curve, co-treatment: AZD3965 100 nM | area under dose-response curve, co-treatment: DMSO vehicle | area under dose-response curve, co-treatment: GSK2194069 100 nM | cell viability, 1 nM [%] | cell viability, 10 nM [%] | cell viability, 100 nM [%] | cell viability, 1000 nM [%] | cell viability, 10000 nM [%]
[1] | 0.0645 | 0.0352 | 0.0524 | – | – | – | – | –
[2] | – | – | – | 108 | 102 | 81.7 | 94 | 53.7
[3] | – | – | – | 115 | 113 | 98.7 | 0.317 | 0.85
[4] | – | – | – | 107 | 85.5 | 90.4 | 78.8 | 11.1
[5] | – | – | – | 89.8 | 101 | 106 | 0.313 | 0.0551
[6] | – | – | – | 111 | 106 | 99.4 | -0.0196 | -0.0121
[7] | – | – | – | 104 | 101 | 104 | 9.79 | 0.81
[8] | – | – | – | 103 | 107 | 95.2 | 21.2 | 1.47
[9] | – | – | – | 105 | 98.6 | 95.8 | -0.204 | -0.415
[10] | – | – | – | 102 | 108 | 93.6 | 107 | 77.7
[11] | – | – | – | 110 | 93.8 | 93.8 | 8 | 0.459
[12] | – | – | – | 108 | 84.5 | 94.1 | 92.9 | 44.3

cell viability [%], [13]
Settings | 0.001 µM | 0.01 µM | 0.1 µM | 1 µM | 10 µM
co-treatment: AZD3965 100 nM | 97.56 | 95.3 | 101 | 91.9 | 48.8
co-treatment: DMSO vehicle | 101.2 | 98.3 | 102 | 98.4 | 74.2
co-treatment: GSK2194069 100 nM | 98.9 | 102 | 101 | 94.5 | 66
co-treatment: pictilisib 100 nM | 94.2 | 100.6 | 104 | 85.7 | 73.8

Settings | IC50 (cell viability) [µM]
[14] | > 10
[15] | 0.312
[16] | 2.78
[17] | 0.347
[18] | 0.479
[19] | 0.314
[20] | 0.407
[21] | 2.38
[22] | 0.486
[23] | 0.293
[24] | > 10
[25] | 0.923
[26] | 0.91
[27] | 0.331
[28] | 9.11

C=C1C(=O)O[C@H](CCCCCCCC)[C@H]1C(=O)O [C75]
Settings | area under dose-response curve, co-treatment: AZD3965 100 nM | area under dose-response curve, co-treatment: DMSO vehicle | area under dose-response curve, co-treatment: GSK2194069 100 nM | area under dose-response curve, co-treatment: pictilisib 100 nM | cell viability, 1 nM [%] | cell viability, 10 nM [%] | cell viability, 100 nM [%] | cell viability, 1000 nM [%] | cell viability, 10000 nM [%]
[1] | < 0.0301 | < 0.0301 | < 0.0301 | < 0.0301 | – | – | – | – | –
[2] | – | – | – | – | 105 | 98.5 | 108 | 100 | 100
[3] | – | – | – | – | 112 | 86.8 | 108 | 110 | 134
[4] | – | – | – | – | 106 | 98.1 | 103 | 85.9 | 116
[5] | – | – | – | – | 98.1 | 99.9 | 103 | 94.4 | 98.9
[6] | – | – | – | – | 115 | 90.1 | 108 | 110 | 112
[7] | – | – | – | – | 102 | 81.1 | 112 | 115 | 114
[8] | – | – | – | – | 92.2 | 102 | 101 | 104 | 106
[9] | – | – | – | – | 106 | 94 | 109 | 107 | 105
[10] | – | – | – | – | 89.1 | 80.8 | 106 | 86 | 120
[11] | – | – | – | – | 101 | 95.7 | 105 | 111 | 121
[12] | – | – | – | – | 107 | 98.3 | 101 | 108 | 111

cell viability [%], [13]
Settings | 0.001 µM | 0.01 µM | 0.1 µM | 1 µM | 10 µM
co-treatment: AZD3965 100 nM | 108 | 91.5 | 107 | 97.8 | 102
co-treatment: DMSO vehicle | 105 | 99.5 | 101.8 | 102 | 102
co-treatment: GSK2194069 100 nM | 96 | 88.2 | 102 | 100 | 111
co-treatment: pictilisib 100 nM | 103 | 90.9 | 105 | 103 | 98.9

Settings | IC50 (cell viability) [µM]
[14] | > 10
[15] | > 10
[16] | > 10
[17] | > 10
[18] | > 10
[19] | > 10
[20] | > 10
[21] | > 10
[22] | > 10
[23] | > 10
[24] | > 10
[25] | > 10
[26] | > 10
[27] | > 10
[28] | > 10
